Structures are written as SMILES.

Among the data in patent publication US20260274853A1, “BIFUNCTIONAL COMPOUNDS CONTAINING PYRIMIDINE DERIVATIVES FOR DEGRADING CYCLIN-DEPENDENT KINASE 2 VIA UBIQUITIN PROTEASOME PATHWAY” (NIKANG THERAPEUTICS, INC., priority 2022, published 2026) are IC50 and DC50 values, retold here.

The target in test [1] is T1, CDK2 (Homo sapiens, UniProt P24941).
T1 construct: High-Throughput Measurement of Cellular Endogenous CDK2; endogenous in cells; host or cells: OVCAR3
Kind of test: Inhibition of CDK2: phospho-Rb (S807/811) HTRF measurement in OVCAR3 cells. Format: cell-based. The conditions noted are these: 24 h compound treatment, read-out: pRb (nM), IC50 in pRB(S807/811) assay.

Test [2] addresses T1, CDK2. Kind of test: CDK2 HTRF assay: cellular endogenous CDK2 level in OVCAR3 cells. In kind it is cell-based. The conditions noted are these: 24 hours compound treatment, read-out: DC50 (half maximal degradation concentration of CDK2). In a few lines:
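Endogenous CDK2 degradation in OVCAR3 cells after 24 h compound treatment at 0.3–10,000 nM. Lysates assayed with an HTRF total-CDK2 two-antibody kit, TR-FRET 665/620 ratio normalized to DMSO. DC50 from four-parameter logistic fit, reported as potency bins.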
A general note: TR-FRET usually uses a lanthanide donor and a delayed reading to cut background.

Regarding `Cn1nc(N2CCC(=O)NC2=O)c2ccc(N3CCC(CN4CCC(S(=O)(=O)N5CCC(Nc6ncc(C(F)(F)F)c(-c7cnn(CC(F)(F)F)c7)n6)CC5)CC4)CC3)cc21` [Example 92, 1-(1-methyl-6-(4-((4-((4-((4-(1-(2,2,2-trifluoroethyl)-1H-pyrazol-4-yl)-5-(trifluoromethyl)pyrimidin-2-yl)amino)-piperidin-1-yl)sulfonyl)-piperidin-1-yl)methyl)piperidin-1-yl)-1H-indazol-3-yl)dihydropyrimidine-2,4(1H,3H)-dione], the IC50 in test [1] was less than 100 nM. Also, the DC50 in test [2] is less than 0.1 µM.

Take `Cn1nc(N2CCC(=O)NC2=O)c2ccc(C3CCN(CC4CCN(c5cccc(S(=O)(=O)N6CCC(Nc7ncc(C(F)(F)F)c(-c8cnn(CC(F)(F)F)c8)n7)CC6)c5)CC4)CC3)cc21` [Example 50, 1-(1-methyl-6-(1-((1-(3-((4-((4-(1-(2,2,2-trifluoroethyl)-1H-pyrazol-4-yl)-5-(trifluoromethyl)pyrimidin-2-yl)amino)-piperidin-1-yl)sulfonyl)phenyl)-piperidin-4-yl)methyl)piperidin-4-yl)-1H-indazol-3-yl)dihydropyrimidine-2,4(1H,3H)-dione]: the IC50 in test [1] is less than 100 nM. In test [2], the DC50 is less than 0.1 µM.

As to `Cn1nc(N2CCC(=O)NC2=O)c2ccc(C3CCN(CC(C)(C)c4cccc(S(=O)(=O)N5CCC(Nc6ncc(C(F)(F)F)c(-c7cnn(CC(F)(F)F)c7)n6)CC5)c4)CC3)cc21` [Example 90, 1-(1-methyl-6-(1-(2-methyl-2-(3-((4-((4-(1-(2,2,2-trifluoroethyl)-1H-pyrazol-4-yl)-5-(trifluoromethyl)-pyrimidin-2-yl)-amino)piperidin-1-yl)sulfonyl)phenyl)-propyl)piperidin-4-yl)-1H-indazol-3-yl)-dihydro-pyrimidine-2,4(1H,3H)-dione], the IC50 in test [1] was less than 100 nM. Further, the DC50 in test [2] was less than 0.1 µM.

In the case of `O=C1CCC(N2C(=O)c3cc(F)c(N4CCN(Cc5cccc(S(=O)(=O)N6CC[C@H](Nc7ncc(C(F)(F)F)c(-c8cnn(CC(F)(F)F)c8)n7)[C@H](F)C6)c5)CC4)cc3C2=O)C(=O)N1` (mixture of isomers) [Example 32, Rac-2-(2,6-dioxopiperidin-3-yl)-5-fluoro-6-(4-(3-(((3R,4S)-3-fluoro-4-((4-(1-(2,2,2-trifluoroethyl)-1H-pyrazol-4-yl)-5-(trifluoromethyl)-pyrimidin-2-yl)amino)piperidin-1-yl)sulfonyl)-benzyl)piperazin-1-yl)-isoindoline-1,3-dione], the IC50 in test [1] lay within 1000 to 10000 nM. Further, the DC50 in test [2] was in the range of 0.1 to 0.5 µM.

`Cn1c(S(=O)(=O)N2CCC(Nc3ncc(C(F)(F)F)c(-c4cnn(CC(F)(F)F)c4)n3)CC2)cnc1CN1CCN(c2cc3c(cc2F)C(=O)N(C2CCC(=O)NC2=O)C3=O)CC1` (centres unmarked) [Example 30, 2-(2,6-dioxopiperidin-3-yl)-5-fluoro-6-(4-((1-methyl-5-((4-((4-(1-(2,2,2-trifluoroethyl)-1H-pyrazol-4-yl)-5-(trifluoromethyl)pyrimidin-2-yl)amino)-piperidin-1-yl)sulfonyl)-1H-imidazol-2-yl)methyl)piperazin-1-yl)isoindoline-1,3-dione]: in test [1], the IC50 is 100 to 500 nM. For the same molecule, the DC50 in test [2] was less than 0.1 µM.

For the molecule `O=C1CCC(NC2CCN(Cc3cccc(S(=O)(=O)N4CCC(Nc5ncc(C(F)(F)F)c(-c6cnn(CC(F)(F)F)c6)n5)CC4)c3)CC2)C(=O)N1` (centres unmarked) [Example 72, 3-((1-(3-((4-((4-(1-(2,2,2-trifluoro-ethyl)-1H-pyrazol-4-yl)-5-(trifluoromethyl)-pyrimidin-2-yl)amino)-piperidin-1-yl)-sulfonyl)benzyl)piperidin-4-yl)amino)-piperidine-2,6-dione], the IC50 in test [1] was less than 100 nM. Also, the DC50 in test [2] is less than 0.1 µM.

As to `O=C1CCC(N2C(=O)c3cc(F)c(N4CC5(CN(Cc6cccc(S(=O)(=O)N7CCC(Nc8ncc(C(F)(F)F)c(-c9cnn(CC(F)(F)F)c9)n8)CC7)c6)C5)C4)cc3C2=O)C(=O)N1` (centres unmarked) [Example 31, 2-(2,6-dioxopiperidin-3-yl)-5-fluoro-6-(6-(3-((4-((4-(1-(2,2,2-trifluoroethyl)-1H-pyrazol-4-yl)-5-(trifluoromethyl)-pyrimidin-2-yl)amino)piperidin-1-yl)-sulfonyl)benzyl)-2,6-diazaspiro[3.3]-heptan-2-yl)isoindoline-1,3-dione], the IC50 in test [1] is less than 100 nM. Also, the DC50 in test [2] was less than 0.1 µM.

Turning to `Cn1c(S(=O)(=O)N2CCC(Nc3ncc(C(F)(F)F)c(-c4cnn(CC(F)(F)F)c4)n3)CC2)cnc1CN1CCN(c2ccc(C3CCC(=O)NC3=O)cc2F)CC1` (centres unmarked) [Example 20, 3-(3-fluoro-4-(4-((1-methyl-5-((4-((4-(1-(2,2,2-trifluoroethyl)-1H-pyrazol-4-yl)-5-(trifluoromethyl)pyrimidin-2-yl)amino)-piperidin-1-yl)sulfonyl)-1H-imidazol-2-yl)methyl)piperazin-1-yl)phenyl)-piperidine-2,6-dione], the IC50 in test [1] is less than 100 nM. In test [2], the DC50 was less than 0.1 µM.

Regarding `O=C1CCC(N2C(=O)c3cc(F)c(N4CCN(Cc5cccc(S(=O)(=O)N6CCC(Nc7ncc(C(F)(F)F)c(-c8cnn(C9CCOCC9)c8)n7)CC6)c5)CC4)cc3C2=O)C(=O)N1` (centres unmarked) [Example 10, 2-(2,6-dioxopiperidin-3-yl)-5-fluoro-6-(4-(3-((4-((4-(1-(tetrahydro-2H-pyran-4-yl)-1H-pyrazol-4-yl)-5-(trifluoromethyl)-pyrimidin-2-yl)amino)-piperidin-1-yl)-sulfonyl)benzyl)-piperazin-1-yl)iso-indoline-1,3-dione], the IC50 in test [1] was less than 100 nM. For the same molecule, the DC50 in test [2] is less than 0.1 µM.

Turning to `CC(Cc1cccc(S(=O)(=O)N2CCC(Nc3ncc(C(F)(F)F)c(-c4cnn(CC(F)(F)F)c4)n3)CC2)c1)CN1CCC(c2ccc3c(N4CCC(=O)NC4=O)nn(C)c3c2)CC1` (centres unmarked) [Example 78, 1-(1-methyl-6-(1-(2-methyl-3-(3-((4-((4-(1-(2,2,2-trifluoroethyl)-1H-pyrazol-4-yl)-5-(trifluoromethyl)-pyrimidin-2-yl)amino)piperidin-1-yl)sulfonyl)-phenyl)propyl)piperidin-4-yl)-1H-indazol-3-yl)dihydro-pyrimidine-2,4(1H,3H)-dione], in test [1], the IC50 was less than 100 nM. In test [2], the DC50 is less than 0.1 µM.

`O=C1CCC(c2ccc(N3CCN(Cc4cccc(S(=O)(=O)N5CCC(Nc6ncc(C(F)(F)F)c(-c7cnn(CC(F)(F)F)c7)n6)CC5)c4)CC3)c(F)c2)C(=O)N1` (centres unmarked) [Example 14, 3-(3-fluoro-4-(4-(3-((4-((4-(1-(2,2,2-trifluoroethyl)-1H-pyrazol-4-yl)-5-(trifluoromethyl)pyrimidin-2-yl)-amino)piperidin-1-yl)sulfonyl)benzyl)-piperazin-1-yl)phenyl)piperidine-2,6-dione]: the IC50 in test [1] is less than 100 nM. For the same molecule, in test [2], the DC50 was less than 0.1 µM.

For the molecule `Cn1nc(N2CCC(=O)NC2=O)c2ccc(C3CCN(CC4CCN(S(=O)(=O)N5CCC(Nc6ncc(C(F)(F)F)c(-c7cnn(CC(F)(F)F)c7)n6)CC5)C4)CC3)cc21` (centres unmarked) [Example 88, 1-(1-methyl-6-(1-((1-((4-((4-(1-(2,2,2-trifluoroethyl)-1H-pyrazol-4-yl)-5-(trifluoromethyl)pyrimidin-2-yl)amino)-piperidin-1-yl)sulfonyl)-pyrrolidin-3-yl)methyl)piperidin-4-yl)-1H-indazol-3-yl)dihydropyrimidine-2,4(1H,3H)-dione], the IC50 in test [1] was less than 100 nM. In addition, in test [2], the DC50 is less than 0.1 µM.

Regarding `O=C1CCN(c2ccc(N3CCN(Cc4cccc(S(=O)(=O)N5CCC(Nc6ncc(C(F)(F)F)c(-c7cnn(CC(F)(F)F)c7)n6)CC5)c4)CC3)c(C(F)(F)F)c2)C(=O)N1` [Example 16, 1-(4-(4-(3-((4-((4-(1-(2,2,2-trifluoro-ethyl)-1H-pyrazol-4-yl)-5-(trifluoro-methyl)pyrimidin-2-yl)amino)-piperidin-1-yl)sulfonyl)benzyl)-piperazin-1-yl)-3-(trifluoromethyl)-phenyl)dihydro-pyrimidine-2,4(1H,3H)-dione], in test [1], the IC50 was in the range of 1000 to 10000 nM. Moreover, in test [2], the DC50 lay within 1 to 10 µM.

As for `O=C1CCC(c2ccc(N3CCN(Cc4cccc(S(=O)(=O)N5CCC(Nc6ncc(C(F)(F)F)c(-c7cnn(CC(F)(F)F)c7)n6)[C@H](F)C5)c4)CC3)c(F)c2)C(=O)N1` (mixture of isomers) [Example 29, Rac-3-(3-fluoro-4-(4-(3-(((3R,4S)-3-fluoro-4-((4-(1-(2,2,2-trifluoroethyl)-1H-pyrazol-4-yl)-5-(trifluoromethyl)-pyrimidin-2-yl)amino)piperidin-1-yl)-sulfonyl)benzyl)piperazin-1-yl)phenyl)-piperidine-2,6-dione], the IC50 in test [1] is less than 100 nM. In addition, the DC50 in test [2] is less than 0.1 µM.

As for `O=C1CCN(C2CCN(Cc3cccc(S(=O)(=O)N4CCC(Nc5ncc(C(F)(F)F)c(-c6cnn(CC(F)(F)F)c6)n5)CC4)c3)C2)C(=O)N1` (centres unmarked) [Example 81, 1-(1-(3-((4-((4-(1-(2,2,2-trifluoro-ethyl)-1H-pyrazol-4-yl)-5-(trifluoromethyl)-pyrimidin-2-yl)amino)-piperidin-1-yl)sulfonyl)benzyl)-pyrrolidin-3-yl)-dihydropyrimidine-2,4(1H,3H)-dione], the IC50 in test [1] was less than 100 nM. Besides, the DC50 in test [2] was less than 0.1 µM.

In the case of `Cn1nc(N2CCC(=O)NC2=O)c2ccc(C3CCN(Cc4cc(S(=O)(=O)N5CCC(Nc6ncc(C(F)(F)F)c(-c7cnn(CC(F)(F)F)c7)n6)CC5)ccc4F)CC3)cc21` [Example 61, 1-(6-(1-(2-fluoro-5-((4-((4-(1-(2,2,2-trifluoroethyl)-1H-pyrazol-4-yl)-5-(trifluoromethyl)pyrimidin-2-yl)-amino)piperidin-1-yl)sulfonyl)benzyl)-piperidin-4-yl)-1-methyl-1H-indazol-3-yl)dihydropyrimidine-2,4(1H,3H)-dione], the IC50 in test [1] was less than 100 nM. The DC50 in test [2] is less than 0.1 µM.
